This note sets out measurements from patent US9908895B2, “Tricyclic fused thiophene derivatives as JAK inhibitors” (Incyte Corporation, priority 2012, dated 2018).

What all share (format): biochemical
The target in one test is human JAK2 (Homo sapiens (Human), UniProt O60674). The experiment in a line: In vitro JAK kinase assay (HTRF), JAK2. Conditions: 1 mM ATP. How it is done:
Compounds herein were tested for inhibitory activity of JAK targets according to the following in vitro assay described in Park et al., Analytical Biochemistry 1999, 269, 94-104. The catalytic domains of human JAK1 (a.a. 837-1142), JAK2 (a.a. 828-1132) and JAK3 (a.a. 781-1124) were expressed using baculovirus in insect cells and purified. The catalytic activity of JAK1, JAK2 or JAK3 was assayed by measuring the phosphorylation of a biotinylated peptide. The phosphorylated peptide was detected by homogenous time resolved fluorescence (HTRF). IC50s of compounds were measured for each kinase in the 40 μL reactions that contain the enzyme, ATP and 500 nM peptide in 50 mM Tris (pH 7.8) buffer with 100 mM NaCl, 5 mM DTT, and 0.1 mg/mL (0.01%) BSA. For the 1 mM IC50 measurements, ATP concentration in the reactions was 1 mM. Reactions were carried out at room temperature for 1 hour and then stopped with 20 μL 45 mM EDTA, 300 nM SA-APC, 6 nM Eu-Py20 in assay buffer (Perkin Elmer, Boston, Mass.). Binding to the Europium labeled antibody took place for 40 minutes and HTRF signal was measured on a PHERA star plate reader (BMG, Cary, N.C.). The Example compounds were each tested in the Example A assay (see Table 1 for data for the compounds of the examples as tested by the assay of Example A at 1 mM ATP).

The target of test [1] is human JAK1 (Homo sapiens, UniProt P23458). The experiment in a line: In vitro JAK kinase assay (HTRF), JAK1. Conditions: 1 mM ATP; for IC50: JAK1 IC50 (nM); for pIC50: read-out: JAK1 IC50. The essentials:
(§1)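 Baculovirus-expressed catalytic domains (JAK1 a.a. 837-1142, JAK2 a.a. 828-1132) phosphorylate 500 nM biotinylated peptide at 1 mM ATP, Tris pH 7.8, 1 h at room temperature. EDTA stop and HTRF detection with Eu-Py20/SA-APC; IC50 values derived.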

Test [2] deals with human JAK1. In words: In vitro JAK kinase assay (HTRF), JAK1. Conditions: ratio of JAK2 IC50 to JAK1 IC50 at 1 mM ATP. The procedure, abridged:
as §1

pIC50: −log10 of the molar value. Where a name gives a salt, the structure may show the parent alone. Read-outs that look alike come from different tables or passages of the source.

Chain of human JAK2 (O60674 828-1132): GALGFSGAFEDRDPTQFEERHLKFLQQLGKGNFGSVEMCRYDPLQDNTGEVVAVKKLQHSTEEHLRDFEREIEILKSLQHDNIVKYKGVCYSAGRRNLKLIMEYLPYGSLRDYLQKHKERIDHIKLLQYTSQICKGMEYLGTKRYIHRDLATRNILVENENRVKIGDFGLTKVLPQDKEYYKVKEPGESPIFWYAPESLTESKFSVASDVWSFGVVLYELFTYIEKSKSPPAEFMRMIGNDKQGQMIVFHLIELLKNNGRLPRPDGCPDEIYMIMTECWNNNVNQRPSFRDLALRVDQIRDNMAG

Molecule `Cc1nc2cnc3ccsc3c2n1[C@@H]1CC[C@@H](CC#N)[C@H](O)C1.Cc1nc2cnc3ccsc3c2n1[C@H]1CC[C@H](CC#N)[C@@H](O)C1` (mixture of isomers) [41 (first peak), [(1R,2S,4S)-4-(2-Methyl-1H-imidazo[4,5-d]thieno[3,2-b]pyridin-1-yl)-2-hydroxycyclohexyl]acetonitrile and [(1S,2R,4R)-4-(2-methyl-1H-imidazo[4,5-d]thieno[3,2-b]pyridin-1-yl)-2-hydroxycyclohexyl]acetonitrile] showed a pIC50 against human JAK2 of more than 6.00. This molecule returned an IC50 on human JAK1 [1] of less than 100 nM. As to `Cc1nc2cnc3ccsc3c2n1[C@@H]1CC[C@@H](CC#N)[C@H](O)C1.Cc1nc2cnc3ccsc3c2n1[C@H]1CC[C@H](CC#N)[C@@H](O)C1` (mixture of isomers) [41 (second peak), [(1R,2S,4S)-4-(2-Methyl-1H-imidazo[4,5-d]thieno[3,2-b]pyridin-1-yl)-2-hydroxycyclohexyl]acetonitrile and [(1S,2R,4R)-4-(2-methyl-1H-imidazo[4,5-d]thieno[3,2-b]pyridin-1-yl)-2-hydroxycyclohexyl]acetonitrile], the IC50 against human JAK1 [1] was more than 2000 nM. As to `Cc1nc2cnc3ccsc3c2n1[C@H]1CC[C@H](CC#N)[C@H](O)C1` (racemic) [Example 34, Mixture of [(1R,2R,4S)-2-hydroxy-4-(2-methyl-1H-imidazo[4,5-d]thieno[3,2-b]pyridin-1-yl)cyclohexyl]acetonitrile trifluoroacetate and [(1S,2S,4R)-2-hydroxy-4-(2-methyl-1H-imidazo[4,5-d]thieno[3,2-b]pyridin-1-yl)cyclohexyl]acetonitrile trifluoroacetate], the pIC50 was more than 5.70 at human JAK2 and more than 6.00 on human JAK1 [1].

In the case of `C[C@@H](O)c1nc2cnc3ccsc3c2n1C1CCNCC1F` (single isomer, unassigned) [9 (2nd peak)], the pIC50 on human JAK1 [1] was more than 6.00. For the same molecule, the JAK2/JAK1 in the test on human JAK1 [2] is given as more than 10.

`C[C@@H](O)c1nc2cnc3ccsc3c2n1C1CCC(O)(CC#N)CC1` (single isomer, unassigned) [24 (second peak)] gave a negative-log IC50 (pIC50) on human JAK2 of less than 5.70. For the same molecule, the JAK2/JAK1 in the test with human JAK1 [2] was more than 10. In the case of `N#CCc1nc2cnc3ccsc3c2n1[C@H]1CC[C@H](CC#N)CC1` [Example 90, {1-[trans-4-(Cyanomethyl)cyclohexyl]-1H-imidazo[4,5-d]thieno[3,2-b]pyridin-2-yl}acetonitrile], in the test on human JAK1 [2], the JAK2/JAK1 is more than 10. In the case of `N#CC[C@H]1CC[C@H](n2c(CO)nc3cnc4ccsc4c32)CO1` [Example 91, {(2R,5S)-5-[2-(Hydroxymethyl)-1H-imidazo[4,5-d]thieno[3,2-b]pyridin-1-yl]tetrahydro-2H-pyran-2-yl}acetonitrile], the JAK2/JAK1 in the test with human JAK1 [2] is given as more than 10.

With “((1R,2R,4S)-2-Hydroxy-4-{2-[(1R)-1-hydroxyethyl]-1H-imidazo[4,5-d]thieno[3,2-b]pyridin-1-yl}cyclohexyl)acetonitrile and ((1S,2S,4R)-2-hydroxy-4-{2-[(1R)-1-hydroxyethyl]-1H-imidazo[4,5-d]thieno[3,2-b]pyridin-1-yl}cyclohexyl)acetonitrile [36 (first peak)]”, in the test on human JAK1 [2], the JAK2/JAK1 is listed as more than 10. Consider “((1R,2R,4S)-2-Hydroxy-4-{2-[(1R)-1-hydroxyethyl]-1H-imidazo[4,5-d]thieno[3,2-b]pyridin-1-yl}cyclohexyl)acetonitrile and ((1S,2S,4R)-2-hydroxy-4-{2-[(1R)-1-hydroxyethyl]-1H-imidazo[4,5-d]thieno[3,2-b]pyridin-1-yl}cyclohexyl)acetonitrile [36 (second peak)]”, for which the JAK2/JAK1 in the test with human JAK1 [2] is on record as more than 10. In the case of “((1R,2S,4S)-2-Hydroxy-4-{2-[(1R)-1-hydroxyethyl]-1H-imidazo[4,5-d]thieno[3,2-b]pyridin-1-yl}cyclohexyl)acetonitrile trifluoacetate and ((1S,2R,4R)-2-hydroxy-4-{2-[(1R)-1-hydroxyethyl]-1H-imidazo[4,5-d]thieno[3,2-b]pyridin-1-yl}cyclohexyl)acetonitrile trifluoacetate [37 (first peak)]”, the JAK2/JAK1 with human JAK1 [2] is more than 10.

As for “((1R,2S,4S)-2-Hydroxy-4-{2-[(1R)-1-hydroxyethyl]-1H-imidazo[4,5-d]thieno[3,2-b]pyridin-1-yl}cyclohexyl)acetonitrile trifluoacetate and ((1S,2R,4R)-2-hydroxy-4-{2-[(1R)-1-hydroxyethyl]-1H-imidazo[4,5-d]thieno[3,2-b]pyridin-1-yl}cyclohexyl)acetonitrile trifluoacetate [37 (second peak)]”, the JAK2/JAK1 in the test with human JAK1 [2] was more than 10. For the molecule “[(1R,2S,4S)-4-(2-Ethyl-1H-imidazo[4,5-d]thieno[3,2-b]pyridin-1-yl)-2-hydroxycyclohexyl]acetonitrile and [(1S,2R,4R)-4-(2-ethyl-1H-imidazo[4,5-d]thieno[3,2-b]pyridin-1-yl)-2-hydroxycyclohexyl]acetonitrile [40 (first peak)]”, the JAK2/JAK1 with human JAK1 [2] is reported as more than 10.
